Assay: Plasma profile of CBD after topical application in rats
Format: in vivo, Sprague Dawley Rats
Experimental: 12 Female Sprague Dawley Rats (150-200 g) were purchased from Charles River Laboratories (Wilmington, MA). Rats were allowed to acclimatise for one week prior to commencement of the study.
At day 0, rats were anaesthetised using 3% isoflurane via inhalation. The skin on the dorsal side of the rats was shaved and a circular area of approximately 18.09 cm^2 was marked onto the surface of the skin. Twice daily, cream was applied to the dorsal surface of the skin using a 1 ml syringe that was prefilled with the composition described in Example 1 at a dose of 15 mg/kg of cannabidiol (CBD). Following the application of the cream and in order to prevent the cream from being removed, dermal application jackets were applied to each of the rats. These were maintained on the animals for the duration of the study (i.e. 7 days). Every 24 hours, blood was collected by puncturing the saphenous vein with a 20 G needle. At each time point, approximately 200 μL of blood was collected into Microvette™ 200 ZGel collection tubes (Sarstedt). Blood samples were centrifuged at 1.5×104 RPM for 5 mins. Following this, plasma was isolated and stored at −80° C. until the end of the study when all samples were analysed simultaneously. […]
Plasma (20 μL) was added to a 1:1 (v/v) solution of acetonitrile:ethyl acetate at a ratio of 1:10 (plasma:organic solvent). […] The samples were reconstituted with LC-MS grade methanol prior to analysed by mass spectrometry.
LC analyses were performed on an Agilent 1260 LC infinity system consisting of a binary pump, a thermostated autosampler and a thermostated column compartment (Agilent, Waldbronn, Germany). Samples were analyzed on an Agilent Poroshell 120 C18 column (150×2.1 mm; 1.9 μm particle size) (Agilent, Waldbronn, Germany). […]
Tandem mass spectrometry was performed using a TSQ Endura™ Triple Quadrupole Mass Spectrometer (Thermo Fisher Scientific, Waltham, MA) operating in electrospray ionization (ESI). Xcalibur software (Thermo Fisher Scientific) was used for instrument control, data acquisition, qualitative and quantitative data analyses. […]

Compound: C=C(C)[C@@H]1CCC(C)=C[C@H]1c1c(O)cc(CCCCC)cc1O [CBD, cannabidiol]
- Time of peak plasma concentration (topical composition of Example 1, 15 mg/kg CBD twice daily for 7 days, female rats): 96 h
- Peak plasma concentration of CBD (topical composition of Example 1, 15 mg/kg CBD twice daily for 7 days, female rats, n=12): 21.08 ± 3.54 ng/mL
- Plasma concentration of CBD by 168 h (topical composition of Example 1, 15 mg/kg twice daily, LOQ of LC-MS method 5 ng/ml): below the LOQ
